Test results reported in patent US8536173B2, “Tetrahydroquinoxaline urea derivatives as modulators of 11-B-hydroxysteroid dehydrogenase type I” (SANOFI, priority 2009, dated 2013).
Structures can show the parent of a compound that is named as a salt.

Tested on: 11βHSD1 in the eyes
Conditions: healthy volunteers, after seven days of treatment; cited from earlier work

Structure (SMILES)	IOP is reduced by [%]
CC1(C)[C@@H](OC(=O)CCC(=O)O)CC[C@]2(C)[C@H]3C(=O)C=C4[C@@H]5C[C@@](C)(C(=O)O)CC[C@]5(C)CC[C@@]4(C)[C@]3(C)CC[C@@H]12 [carbenoxolone]	18

Tested on: not given
Conditions: not given

Structure (SMILES)	melting point [°C]
Cc1noc([C@]23CC4CC(C2)[C@H](NC(=O)N2CCN(c5ccc(N6CCN(S(=O)(=O)C7CC7)CC6)cn5)c5ccccc52)C(C4)C3)n1	135
CONC(=O)[C@]12CC3CC(C1)[C@H](NC(=O)N1CCN(c4ccc(N5CCN(S(=O)(=O)C6CC6)CC5)cn4)c4ccccc41)C(C3)C2	125 to 163
CC(C)(C)N1CCN(c2ccc(N3CCN(C(=O)N[C@H]4C5CC6CC4C[C@@](CNS(C)(=O)=O)(C6)C5)c4ccccc43)nc2)CC1 (as salt: hydrochloride)	252
CC(C)(C)N1CCN(c2ccc(N3CCN(C(=O)N[C@H]4C5CC6CC4C[C@@](NS(C)(=O)=O)(C6)C5)c4ccccc43)nc2)CC1	165
NC[C@]12CC3CC(C1)[C@H](NC(=O)N1CCN(c4ccc(N5CCN(S(=O)(=O)C6CC6)CC5)cn4)c4ccccc41)C(C3)C2 (as salt: hydrochloride)	197

Further lines, results first:

melting point [°C]	Structure (SMILES)
192 to 196	CC(C)(C)N1CCN(c2ccc(N3CCN(C(=O)N[C@H]4C5CC6CC4C[C@@](C(O)C(F)(F)F)(C6)C5)c4ccccc43)nc2)CC1 (stereo partly drawn)
120 to 135	NC(=O)C[C@]12CC3CC(C1)[C@H](NC(=O)N1CCN(c4ccc(N5CCN(S(=O)(=O)C6CC6)CC5)cn4)c4ccccc41)C(C3)C2
160 to 170	CC(C)(C)N1CCN(c2ccc(N3CCN(C(=O)N[C@H]4C5CC6CC4C[C@@](Cc4nn[nH]n4)(C6)C5)c4ccccc43)nc2)CC1
